Measurements reported in patent publication US20260276656A1, “GUT MICROBIOTA-RELATED METHODS FOR TREATING DEMENTIA AND AGE-DEPENDENT COGNITIVE DECLINE” (Albert-Ludwigs-Universitat Freiburg, priority 2019, published 2026).
“Also recorded” adds a separate entry of the source.

Experiments:
[1] = system: Layer 2/3 pyramidal cells of the infralimbic or prelimbic mPFC; experiment: Whole-cell patch-clamp recordings of spontaneous EPSCs and IPSCs in acute prefrontal brain slices; type: cell-based, mouse; details: pre-incubation with 10 μM
Experimental: Mice were injected intraperitoneally with ketamine/xylazine (100/13 mg/kg body weight) and intracardially perfused with ice-cold solution containing (in mM) NaCl 87, NaHCO325, KCl 2.5, NaH2PO4 1.25, glucose 10, sucrose 75, CaCl2 0.5 and MgCl2 7 (aerated with 95% O2/5% CO2). 300 μm thick frontal sections of the PFC were prepared with a vibratome and stored in artificial cerebrospinal fluid (ACSF) containing in mM: NaCl 125, NaHCO3 25, KCl 2.5, NaH2PO4 1.25, Glucose 25, CaCl2 2 and MgCl2 1 (equillibrated with 95% O2/5% CO2) first at 34° C. for 30 min, then at room temperature. Patch-clamp recordings were targeted to pyramidal neurons identified by their characteristic soma shape using pipettes pulled from borosilicate glass tubing and filled with a Cs-based pipette solution containing (in mM): CsCl 20, MgCl2 2, Na2ATP 2, QX-314 1, Hepes 10, TEACl 8, Cs-Gluconate 110. Recordings were performed at 30 to 34° C. using an Axopatch Multiclamp amplifier in voltage clamp mode. To isolate spontaneous excitatory postsynaptic currents (EPSCs), the resting membrane potential was held at −70 mV (the reversal potential of inhibitory postsynaptic currents (IPSCs). To record spontaneous IPSCs, the cell was held at 0 mV (the reversal potential of EPSCs). Both IPSCs and EPSCs were recorded from the same neurons in slices pre-incubated in 10 μM 6-valerobetaine or in control slices kept in ACSF. Spontaneous events were identified visually from lowpass-filtered data (<1 kHz). Amplitudes were measured from average events.

[2] = system: prelimbic or infralimbic cortex of the mPFC; experiment: In vivo recordings from prelimbic or infralimbic cortex, spike-spike synchronization; design: species or system mouse; details: systemic application (intraperitoneally); n=9 mice; FIG. 8
Experimental: C57BL/6J mice aged 10-11 weeks were anesthetized with isofluorane (induction: 3%, maintenance approximately 1.5%). Buprenorphin (0.05-0.1 mg/kg body weight) and Carprofen (4-5 mg/kg body weight) were injected for analgesia. During implantation, the body temperature was maintained with a heating pad. The skin was incised from the cerebellum to the nose and the bone cleaned with 3% H2O2. Ground and reference screws (1 mm diameter) were inserted anterior to the lambdoid suture. A third stabilizing screw was inserted on the left parietal bone. A microdrive loaded with 8 tetrodes made from tungsten wire (California Fine Wire Company) was inserted in the right prefrontal cortex at the coordinates AP+1.9, ML 0.4, DV−1.2 (from brain surface). The craniotomy was protected with vaseline and the microdrive fixed to the skull using dental cement. After the surgery, the mice were injected with buprenorphin and carprofen subcutaneously for 48 h hours and housed individually.
Local field potential were recorded with a wireless amplifier system (W4, Multichannel Systems) 2-21 days after surgery at a sampling rate of 2 kHz or with a wired recording system (RHD2000, Intan Technologies, sampling rate 10 kHz) on freely moving mice. Single-unit activity was recorded at 20-30 kHz using a 32-channel amplifier system (RHD2000, Intan Technologies). […]

[3] = system: medial prefrontal cortex neurons; experiment: In vivo single unit recordings from medial prefrontal cortex during natural sleep, spike rate and population coupling; design: species or system mouse; details: 5 mg/kg body weight i.p.; versus PBS; normalized to baseline; FIG. 9B
Experimental: C57BL/6J mice aged 10-11 weeks were anesthetized with isofluorane (induction: 3%, maintenance approximately 1.5%). Buprenorphin (0.05-0.1 mg/kg body weight) and Carprofen (4-5 mg/kg body weight) were injected for analgesia. During implantation, the body temperature was maintained with a heating pad. The skin was incised from the cerebellum to the nose and the bone cleaned with 3% H2O2. Ground and reference screws (1 mm diameter) were inserted anterior to the lambdoid suture. A third stabilizing screw was inserted on the left parietal bone. […]
After habituation to the recording room for several days, single-unit recordings were performed at a sampling frequency of 30 kHz using a 32-channel amplifier (Intan Technologies). […] First, a baseline was recorded during sleep identified as epochs when mice were completely immobile in their home cage and slow wave activity could be seen in the PFC local field potential. […]
Recording sections containing artefacts were manually identified and removed. […] Firing rates were estimated from the total number of spikes during the analyzed behavioral episodes divided by the duration. To quantify population synchrony, we utilized a metric that compares the rate change of a given unit to the normalized population rate at each time point. […]

For `C[N+](C)(C)CCCCC(=O)[O-]` [NNN-trimethyl-5-aminovalerate, 5-(trimethylammonio) pentanoate], the “amplitude of spontaneous EPSCs” value [1] was “unaltered; also recorded: no significant effect”, the “amplitude of spontaneous IPSCs” value [1] was “not the amplitude; also recorded: no significant effect” and the “frequency of spontaneous EPSCs” value [1] was “unaltered”. The “frequency of spontaneous IPSCs” value [1] was “increased”, the spike-spike-synchronization [2] was “enhanced” and the “average spike frequency (spike firing rate)” value [3] was “No effect; also recorded: no change”. The population coupling [3] was “significant increase”.
